Values quoted from earlier work as cited in article PMC11054282, “Structural Investigations on 2-Amidobenzimidazole Derivatives as New Inhibitors of Protein Kinase CK1 Delta” (Pharmaceuticals, 2024).
Read-outs that look alike come from different tables or passages of the source.

Key:
[1] = tested on: CK1δ; conditions: cited from earlier work
[2] = tested on: CK1ε; conditions: cited from earlier work

Nc1nccc(-c2c(-c3ccc(F)cc3)ncn2C2CCCCC2)n1 [PF-670462]
IC50 ([1]; PF-670462, read-out: CK1δ IC50): […] | IC50 ([1]; PF-670462 as positive control, value in the method section, read-out: IC50): […] | IC50 ([2]; PF-670462): […]

COc1ccc(/C=C/C(=O)Nc2cc(-c3nc(SC)[nH]c3-c3ccc(F)cc3)ccn2)c(OC)c1 [III]
IC50 ([1]; compound III, Figure 1, read-out: CK1δ IC50): 4 nM | IC50 ([2]; compound III, Figure 1): 73 nM

COc1ccc(/C=C/C(=O)Nc2cc(-c3c(-c4ccc(F)cc4)noc3C(C)C)ccn2)c(OC)c1 [II]
IC50 ([1]; compound II, Figure 1, read-out: CK1δ IC50): 33 nM | IC50 ([2]; compound II, Figure 1): 2520 nM
